Data taken from ChEMBL document CHEMBL5154678, “Lysine Stapling Screening Provides Stable and Low Toxic Cationic Antimicrobial Peptides Combating Multidrug-Resistant Bacteria In Vitro and In Vivo” (J Med Chem, 2022).
≈ marks a conversion by molar mass, not a printed value. Calls of active or inactive are those of the source. The calls are words filed in the database; no cut-off is given here. Starred links: 1 amine or outer side, 2 acyl side, 3 side chain; linkers in the order of their positions; H or OH if unused. Positions of bridges follow the written chain, without caps; N, C: chain ends. Non-standard residues stand in square brackets, D forms with d. Residues, ends and D or L forms follow the SMILES beside them. X1 = O=C([C@H](CCCCNCC=[*:3])N[*:1])[*:2]

Legend:
[1] = system: Staphylococcus aureus; test: Antibacterial activity against Staphylococcus aureus BNCC 186335 assessed as inhibition of bacterial growth incubated for 16 hrs by broth microdilution method; format: functional
[2] = system: Staphylococcus aureus; test: Antibacterial activity against methicillin-resistant Staphylococcus aureus assessed as inhibition of bacterial growth incubated for 16 hrs by broth microdilution method; format: functional
[3] = system: Escherichia coli; test: Antibacterial activity against cephalosporin-resistant Escherichia coli BNCC 133264 assessed as inhibition of bacterial growth incubated for 16 hrs by broth microdilution method; format: functional
[4] = system: Erythrocyte; test: Hemolytic activity against human RBC assessed as concentration required to cause 10% hemolysis; format: toxicity, cell-based
[5] = system: Pseudomonas aeruginosa; test: Antibacterial activity against Pseudomonas aeruginosa BNCC 125486 assessed as inhibition of bacterial growth incubated for 16 hrs by broth microdilution method; format: functional
[6] = system: HEK-293T; test: Cytotoxicity against human HEK293T cells assessed as cell survival rate at 256 ug/ml incubated for 24 hrs by MTT assay; format: toxicity, cell-based; settings: dose 256 µg/ml
[7] = system: Escherichia coli; test: Antibacterial activity against Escherichia coli BNCC 133264 assessed as inhibition of bacterial growth incubated for 16 hrs by broth microdilution method; format: functional
[8] = system: Staphylococcus aureus; test: Antibacterial activity against methicillin-resistant Staphylococcus aureus BNCC 186335 assessed as inhibition of bacterial growth incubated for 4 hrs in presence of 25% plasma by broth microdilution method; format: functional
[9] = system: Listeria monocytogenes; test: Antibacterial activity against Listeria monocytogenes assessed as inhibition of bacterial growth incubated for 16 hrs by broth microdilution method; format: functional
[10] = system: Staphylococcus aureus; test: Antibacterial activity against methicillin-resistant Staphylococcus aureus BNCC 186335 infected in mouse C57BL/6 assessed as reduction in intracellular bacterial burden in lung at 2 mg/kg ,ip incubated for 24 hrs; format: functional, organism-based
[11] = system: Cell membrane; test: Induction of membrane damage in methicillin-resistant Staphylococcus aureus BNCC 186335 assessed as concentration of stained cells incubated for 2 hrs by propidium iodide staining based flow cytometer assay; format: subcellular
[12] = Stability in human plasma assessed as half life measured after 24 hrs by HPLC analysis; format: ADME, cell-free
[13] = system: Acinetobacter baumannii; test: Antibacterial activity against multidrug-resistant Acinetobacter baumannii assessed as inhibition of bacterial growth incubated for 16 hrs by broth microdilution method; format: functional
[14] = system: Cell membrane; test: Induction of membrane damage in multidrug-resistant Acinetobacter baumannii assessed as concentration of stained cells incubated for 2 hrs by propidium iodide staining based flow cytometer assay; format: subcellular; settings: dose 16.0 µg/ml
[15] = system: Staphylococcus aureus; test: Antibacterial activity against methicillin-resistant Staphylococcus aureus BNCC 186335 infected in mouse C57BL/6 assessed as reduction in intracellular bacterial burden in kidney at 2 mg/kg ,ip incubated for 24 hrs; format: functional, organism-based
[16] = system: Staphylococcus aureus; test: Antibacterial activity against methicillin-resistant Staphylococcus aureus BNCC 186335 infected in mouse C57BL/6 assessed as reduction in intracellular bacterial burden in spleen at 2 mg/kg ,ip incubated for 24 hrs; format: functional, organism-based
[17] = system: Enterococcus faecium; test: Antibacterial activity against multidrug-resistant Enterococcus faecium assessed as inhibition of bacterial growth incubated for 16 hrs by broth microdilution method; format: functional
[18] = system: Staphylococcus aureus; test: Antibacterial activity against methicillin-resistant Staphylococcus aureus BNCC 186335 infected in mouse C57BL/6 assessed as reduction in intracellular bacterial burden in liver at 2 mg/kg ,ip incubated for 24 hrs; format: functional, organism-based
[19] = system: Escherichia coli; test: Antibacterial activity against multidrug-resistant Escherichia coli BNCC 133264 assessed as inhibition of bacterial growth incubated for 16 hrs by broth microdilution method; format: functional
[20] = system: Klebsiella pneumoniae; test: Antibacterial activity against multidrug-resistant Klebsiella pneumoniae assessed as inhibition of bacterial growth incubated for 16 hrs by broth microdilution method; format: functional
[21] = system: Staphylococcus aureus; test: Antibacterial activity against multidrug-resistant Staphylococcus aureus BNCC 186335 assessed as inhibition of bacterial growth incubated for 16 hrs by broth microdilution method; format: functional
[22] = system: Pseudomonas aeruginosa; test: Antibacterial activity against multidrug-resistant Pseudomonas aeruginosa BNCC 125486 assessed as inhibition of bacterial growth incubated for 16 hrs by broth microdilution method; format: functional
[23] = system: HEK-293T; test: Cytotoxicity against human HEK293T cells assessed as cell survival rate at 128 ug/ml incubated for 24 hrs by MTT assay relative to control; format: toxicity, cell-based; settings: dose 128 µg/ml
[24] = system: HEK-293T; test: Cytotoxicity against human HEK293T cells assessed as cell survival rate at 64 Ug/ml incubated for 24 hrs by MTT assay relative to control; format: toxicity, cell-based; settings: dose 64 µg/ml
[25] = system: Staphylococcus aureus; test: Bactericidal activity against methicillin-resistant Staphylococcus aureus BNCC 186335 assessed as log reduction in colony forming unit at 32 ug/ml measured after 30 mins by time kill assay; format: functional, organism-based; settings: dose 32.0 µg/ml
[26] = system: Staphylococcus aureus; test: Drug resistance development in Staphylococcus aureus assessed as change in MIC at sub-MIC concentration measured after 60 passages; format: functional, organism-based
[27] = system: Cell membrane; test: Induction of membrane damage in methicillin-resistant Staphylococcus aureus BNCC 186335 assessed as disruption of membrane integrity at 16 ug/ml incubated for 2 hrs by propidium iodide staining based assay; settings: dose 16.0 µg/ml
[28] = system: Acinetobacter baumannii; test: Bactericidal activity against multidrug-resistant Acinetobacter baumannii assessed as log reduction in colony forming unit at 32 ug/ml measured after 20 mins by time kill assay; format: functional, organism-based; settings: dose 32.0 µg/ml
[29] = system: Cell membrane; test: Induction of membrane disruption in multidrug-resistant Acinetobacter baumannii assessed as loss of cell integrity at 16 ug/ml measured after 2 hrs by SEM analysis; format: subcellular; settings: dose 16.0 µg/ml
[30] = system: Cell membrane; test: Induction of membrane disruption in methicillin-resistant Staphylococcus aureus BNCC 186335 assessed as loss of cell integrity at 16 ug/ml measured after 2 hrs by SEM analysis; format: subcellular; settings: dose 16.0 µg/ml

Compound | MIC [1] [µg/mL] | MIC [2] [µg/mL] | MIC [3] [µg/mL] | MHC [4] [µg/mL] | MIC [5] [µg/mL] | Activity [6] | MIC [7] [µg/mL] | MIC [8] [µg/mL] | MIC [9] [µg/mL] | half-life [12] [h] | MIC [13] [µg/mL] | MIC [17] [µg/mL] | MIC [19] [µg/mL] | MIC [20] [µg/mL] | MIC [21] [µg/mL] | MIC [22] [µg/mL] | Activity [23] | other results
CC(C)[C@H](N)C(=O)N[C@H]1CCCCNCC#CCNCCCC[C@@H](C(=O)N[C@@H](Cc2ccccc2)C(=O)N[C@@H](Cc2ccccc2)C(=O)N[C@@H](CCCNC(=N)N)C(=O)N[C@@H](CCCCN)C(=O)N[C@@H](Cc2ccccc2)C(=O)N[C@@H](CCCCN)C(=O)N[C@@H](CCCCN)C(=O)N[C@@H](Cc2ccccc2)C(=O)N[C@H](C(N)=O)C(C)C)NC(=O)[C@H](CCCCN)NC(=O)[C@H](Cc2ccccc2)NC(=O)[C@H](CCCNC(=N)N)NC1=O | 4 (≈ 1.92 µM) | 8 (≈ 3.84 µM) | 16 (≈ 7.68 µM) | > 128 | 16 (≈ 7.68 µM) | Toxic | 4 (≈ 1.92 µM) | 128 | 8 (≈ 3.84 µM) | – | – | – | – | – | – | – | – | –
CC(C)[C@H](N)C(=O)N[C@@H](CCCCN)C(=O)N[C@@H](CCCNC(=N)N)C(=O)N[C@@H](Cc1ccccc1)C(=O)N[C@@H](CCCCN)C(=O)N[C@@H](CCCCN)C(=O)N[C@@H](Cc1ccccc1)C(=O)N[C@@H](Cc1ccccc1)C(=O)N[C@@H](CCCNC(=N)N)C(=O)N[C@@H](CCCCN)C(=O)N[C@@H](Cc1ccccc1)C(=O)N[C@@H](CCCCN)C(=O)N[C@@H](CCCCN)C(=O)N[C@@H](Cc1ccccc1)C(=O)N[C@H](C(N)=O)C(C)C (H-VKRFKKFFRKFKKFV-NH2) | 4 (≈ 1.97 µM) | 8 (≈ 3.94 µM) | 16 (≈ 7.87 µM) | > 128 | 8 (≈ 3.94 µM) | Toxic | 2 (≈ 0.984 µM) | – | 16 (≈ 7.87 µM) | 2.5 | 4 (≈ 1.97 µM) | 8 (≈ 3.94 µM) | 8 (≈ 3.94 µM) | 128 (≈ 63 µM) | 32 (≈ 15.7 µM) | 4 (≈ 1.97 µM) | – | Activity [10]: Active; Activity [11]: 11%; Activity ([14]; DDE = dose-dependent effect): Dde; Activity [15]: Active; Activity [16]: Active; Activity [18]: Active
CC(C)[C@H](N)C(=O)N[C@H]1CCCCNCc2ccccc2CNCCCC[C@@H](C(=O)N[C@@H](Cc2ccccc2)C(=O)N[C@@H](Cc2ccccc2)C(=O)N[C@@H](CCCNC(=N)N)C(=O)N[C@@H](CCCCN)C(=O)N[C@@H](Cc2ccccc2)C(=O)N[C@@H](CCCCN)C(=O)N[C@@H](CCCCN)C(=O)N[C@@H](Cc2ccccc2)C(=O)N[C@H](C(N)=O)C(C)C)NC(=O)[C@H](CCCCN)NC(=O)[C@H](Cc2ccccc2)NC(=O)[C@H](CCCNC(=N)N)NC1=O | 4 (≈ 1.87 µM) | 8 (≈ 3.75 µM) | 16 (≈ 7.5 µM) | > 128 | 16 (≈ 7.5 µM) | Toxic | 8 (≈ 3.75 µM) | 128 | 16 (≈ 7.5 µM) | – | – | – | – | – | – | – | Non-Toxic | –
CC(C)[C@H](N)C(=O)N[C@@H](CCCCN)C(=O)N[C@@H](CCCNC(=N)N)C(=O)N[C@@H](Cc1ccccc1)C(=O)N[C@@H](CCCCN)C(=O)N[C@H]1CCCCNCC#CCNCCCC[C@@H](C(=O)N[C@@H](Cc2ccccc2)C(=O)N[C@@H](CCCCN)C(=O)N[C@@H](CCCCN)C(=O)N[C@@H](Cc2ccccc2)C(=O)N[C@H](C(N)=O)C(C)C)NC(=O)[C@H](CCCNC(=N)N)NC(=O)[C@H](Cc2ccccc2)NC(=O)[C@H](Cc2ccccc2)NC1=O | 2 (≈ 0.96 µM) | 4 (≈ 1.92 µM) | 16 (≈ 7.68 µM) | > 128 | 16 (≈ 7.68 µM) | Toxic | 2 (≈ 0.96 µM) | 8 | 2 (≈ 0.96 µM) | – | – | – | – | – | – | – | – | –
CC(C)[C@H](N)C(=O)N[C@H]1CCCCNC/C=C/CNCCCC[C@@H](C(=O)N[C@@H](Cc2ccccc2)C(=O)N[C@@H](Cc2ccccc2)C(=O)N[C@@H](CCCNC(=N)N)C(=O)N[C@@H](CCCCN)C(=O)N[C@@H](Cc2ccccc2)C(=O)N[C@@H](CCCCN)C(=O)N[C@@H](CCCCN)C(=O)N[C@@H](Cc2ccccc2)C(=O)N[C@H](C(N)=O)C(C)C)NC(=O)[C@H](CCCCN)NC(=O)[C@H](Cc2ccccc2)NC(=O)[C@H](CCCNC(=N)N)NC1=O (H-V[X1]RFK[X1]FFRKFKKFV-NH2; staple (E) 2-6) | 2 (≈ 0.959 µM) | 4 (≈ 1.92 µM) | 16 (≈ 7.68 µM) | > 128 | 8 (≈ 3.84 µM) | Toxic | 4 (≈ 1.92 µM) | 128 | 16 (≈ 7.68 µM) | – | – | – | – | – | – | – | – | Activity [24]: Toxic
CC(C)[C@H](N)C(=O)N[C@@H](CCCCN)C(=O)N[C@@H](CCCNC(=N)N)C(=O)N[C@@H](Cc1ccccc1)C(=O)N[C@@H](CCCCN)C(=O)N[C@H]1CCCCNCc2ccccc2CNCCCC[C@@H](C(=O)N[C@@H](Cc2ccccc2)C(=O)N[C@@H](CCCCN)C(=O)N[C@@H](CCCCN)C(=O)N[C@@H](Cc2ccccc2)C(=O)N[C@H](C(N)=O)C(C)C)NC(=O)[C@H](CCCNC(=N)N)NC(=O)[C@H](Cc2ccccc2)NC(=O)[C@H](Cc2ccccc2)NC1=O | 2 (≈ 0.937 µM) | 2 (≈ 0.937 µM) | 8 (≈ 3.75 µM) | 32 | 8 (≈ 3.75 µM) | Toxic | 4 (≈ 1.87 µM) | 8 | 4 (≈ 1.87 µM) | 16 | 2 (≈ 0.937 µM) | 2 (≈ 0.937 µM) | 4 (≈ 1.87 µM) | 16 (≈ 7.5 µM) | 4 (≈ 1.87 µM) | 8 (≈ 3.75 µM) | Toxic | Activity ([11]; DDE = dose-dependent effect): Dde; Activity [25]: Active; Activity [26]: Active; Activity [27]: Active; Activity [14]: 27%; Activity [28]: Active; Activity [29]: Active; Activity [30]: Active
